The source made the active and inactive calls. The rule behind the calls is not given here.
Assays:
[1] = system: Rattus norvegicus; assay: (§1) Antidiabetic activity in high fat diet-STZ induced diabetic Wistar rat model assessed as HDL-cholesterol level at 10 mg/kg, ip pretreated with high fat diet for 4 weeks followed by 8 hrs fasting after STZ administration and measured 4 weeks after compound treatment (reference value: 0.688 +/- 0.288 mmol/L); type: functional
[2] = system: Rattus norvegicus; assay: (§2) Antidiabetic activity in high fat diet-STZ induced diabetic Wistar rat model assessed as HOMA-IR level at 30 mg/kg, ip pretreated with high fat diet for 4 weeks followed by 8 hrs fasting after STZ administration and measured 4 weeks after compound treatment (reference value: 21.51 +/- 2.17); type: functional
[3] = system: Rattus norvegicus; assay: as §1, with “triglyceride” for “HDL-cholesterol”, “20” for “10”, “17.05” for “0.688”, “0.803” for “0.288”; type: functional
[4] = system: Rattus norvegicus; assay: as §1, with “triglyceride” for “HDL-cholesterol”, “17.05” for “0.688”, “0.803” for “0.288”; type: functional
[5] = system: Rattus norvegicus; assay: (§3) Antidiabetic activity in high fat diet-STZ induced diabetic Wistar rat model assessed as mean area percentage of TNF alpha in liver at 10 mg/kg, ip pretreated with high fat diet for 4 weeks followed by 8 hrs fasting after STZ administration and measured after 4 weeks of compound treatment by immunohistochemistry based microscopic analysis (reference value: 18.28 +/- 1.31 %); type: functional
[6] = system: Rattus norvegicus; assay: (§4) Antidiabetic activity in ip dosed high fat diet-STZ induced diabetic Wistar rat model assessed as reduction of DDX58 mRNA expression in liver pretreated with high fat diet for 4 weeks followed by 8 hrs fasting after STZ administration and measured 4 weeks after compound treatment by RT-qPCR analysis; type: functional, organism-based; conditions: dose 10-30 mg/kg
[7] = system: Rattus norvegicus; assay: as §1, with “LDL-cholesterol” for “HDL-cholesterol”, “20” for “10”, “6.54” for “0.688”, “0.918” for “0.288”; type: functional
[8] = system: Rattus norvegicus; assay: as §2, with “urine albumin to creatinine ratio” for “HOMA-IR level”, “20” for “30”, “87.13” for “21.51”, “9.75 mg/g)” for “2.17)”; type: functional
[9] = system: Rattus norvegicus; assay: Antidiabetic activity in high fat diet-STZ induced diabetic Wistar rat model assessed as AST level at 20 mg/kg, ip pretreated with high fat diet for 4 weeks followed by 8 hrs fasting after STZ administration and measured 4 weeks after compound treatment (reference value: 136.3 +/- 22.8 IU/L); type: functional
[10] = system: Rattus norvegicus; assay: Antidiabetic activity in high fat diet-STZ induced diabetic Wistar rat model assessed as ALT level at 10 mg/kg, ip pretreated with high fat diet for 4 weeks followed by 8 hrs fasting after STZ administration and measured 4 weeks after compound treatment (reference value: 152.1 +/- 23.64 IU/L); type: functional
[11] = system: Rattus norvegicus; assay: as §1, with “glucose” for “HDL-cholesterol”, “level in serum” for “level”, “527.7” for “0.688”, “49.1 mg%)” for “0.288 mmol/L)”; type: functional
[12] = system: Rattus norvegicus; assay: as §1, with “cholesterol” for “HDL-cholesterol”, “10.39” for “0.688”, “1.3” for “0.288”; type: functional
[13] = system: Rattus norvegicus; assay: Antidiabetic activity in high fat diet-STZ induced diabetic Wistar rat model assessed as creatinine level at 20 mg/kg, ip pretreated with high fat diet for 4 weeks followed by 8 hrs fasting after STZ administration and measured 4 weeks after compound treatment (reference value: 3.88 +/- 0.502 mg%); type: functional
[14] = system: Rattus norvegicus; assay: (§5) Antidiabetic activity in high fat diet-STZ induced diabetic Wistar rat model assessed as reduction in interstitial inflammatory cell infiltration in kidney at 10 mg/kg, ip pretreated with high fat diet for 4 weeks followed by 8 hrs fasting after STZ administration and measured 4 weeks after compound treatment by hematoxylin and eosin staining based microscopic analysis; type: functional, organism-based
[15] = system: Rattus norvegicus; assay: as §5, with “focal necrotic lesions” for “interstitial inflammatory cell infiltration”, “liver” for “kidney”, “20” for “10”; type: functional, organism-based
[16] = system: Rattus norvegicus; assay: as §1, with “insulin” for “HDL-cholesterol”, “level in serum” for “level”, “treatment by ELISA” for “treatment”, “16.53” for “0.688”, “1.14 microU/ml)” for “0.288 mmol/L)”; type: functional
[17] = system: Rattus norvegicus; assay: as §3, with “30” for “10”; type: functional
[18] = system: Rattus norvegicus; assay: as §4, with “adipose tissue” for “liver”; type: functional, organism-based; conditions: dose 10-30 mg/kg
[19] = system: Rattus norvegicus; assay: Antidiabetic activity in high fat diet-STZ induced diabetic Wistar rat model assessed as ALT level at 30 mg/kg, ip pretreated with high fat diet for 4 weeks followed by 8 hrs fasting after STZ administration and measured 4 weeks after compound treatment (reference value: 152.1 +/- 23.64 IU/L); type: functional
[20] = system: Rattus norvegicus; assay: as §3, with “LC3B” for “TNF alpha”, “30” for “10”, “0.742” for “18.28”, “0.143” for “1.31”; type: functional
[21] = system: Rattus norvegicus; assay: Antidiabetic activity in ip dosed high fat diet-STZ induced diabetic Wistar rat model assessed as reduction of STING mRNA expression in liver pretreated with high fat diet for 4 weeks followed by 8 hrs fasting after STZ administration and measured 4 weeks after compound treatment by RT-qPCR analysis; type: functional, organism-based; conditions: dose 10-30 mg/kg
[22] = system: Rattus norvegicus; assay: as §2, with “glucose” for “HOMA-IR”, “level in serum” for “level”, “527.7” for “21.51”, “49.1 mg%)” for “2.17)”; type: functional
[23] = system: Rattus norvegicus; assay: as §5, with “luminal exfoliation of epithelial cells” for “interstitial inflammatory cell infiltration”, “30” for “10”; type: functional, organism-based
[24] = system: Rattus norvegicus; assay: as §2, with “urine albumin to creatinine ratio” for “HOMA-IR level”, “87.13” for “21.51”, “9.75 mg/g)” for “2.17)”; type: functional
[25] = system: Rattus norvegicus; assay: as §4, with “in” for “in ip dosed”, “increase in AC074117.2 lncRNA” for “reduction of DDX58 mRNA”, “adipose tissue at 10 to 30 mg/kg, ip” for “liver”; type: functional, organism-based; conditions: dose 10-30 mg/kg
[26] = system: Rattus norvegicus; assay: Antidiabetic activity in high fat diet-STZ induced diabetic Wistar rat model assessed as HOMA-IR level at 10 mg/kg, ip pretreated with high fat diet for 4 weeks followed by 8 hrs fasting after STZ administration and measured 4 weeks after compound treatment (reference value: 21.51 +/- 2.17); type: functional
[27] = system: Rattus norvegicus; assay: Antidiabetic activity in ip dosed high fat diet-STZ induced diabetic Wistar rat model assessed as reduction of ZBP1 mRNA expression in liver pretreated with high fat diet for 4 weeks followed by 8 hrs fasting after STZ administration and measured 4 weeks after compound treatment by RT-qPCR analysis; type: functional, organism-based; conditions: dose 10-30 mg/kg
[28] = system: Rattus norvegicus; assay: as §3, with “LC3B” for “TNF alpha”, “kidney” for “liver”, “2.47” for “18.28”, “0.356” for “1.31”; type: functional
[29] = system: Rattus norvegicus; assay: as §3, with “TNFalpha” for “TNF alpha”, “kidney” for “liver”, “20” for “10”, “24” for “18.28”, “1.5” for “1.31”; type: functional
[30] = system: Rattus norvegicus; assay: as §5, with “protection against diffuse hepatocellular microvesicular steatosis” for “reduction in interstitial inflammatory cell infiltration in kidney”; type: functional, organism-based
[31] = system: Rattus norvegicus; assay: as §1, with “30” for “10”; type: functional

## O[C@@H]1[C@@H](O)[C@H](OC/C=C/c2ccccc2)O[C@H](CO[C@@H]2OC[C@H](O)[C@H](O)[C@H]2O)[C@H]1O
[1]
  Activity: 0.916 mmol/L
[2]
  Activity: 1.73
[3]
  Activity: 6.46 mmol/L
[4]
  Activity: 8.52 mmol/L
[5]
  Activity: 11.3%
[6]
  Activity: Dose-Dependent Effect
[7]
  Activity: 2.13 mmol/L
[8]
  Activity: 33.38 mg/g
[9]
  Activity: 54.5 IU/L
[10]
  Activity: 79.5 IU/L
[11]
  Activity: 227.7 mg%
[12]
  Activity: 6.09 mmol/L
[13]
  Activity: 1.51 mg%
[14]
  Activity: Active
[15]
  Activity: Active
[16]
  Activity: 13.88 uU/ml
[17]
  Activity: 3.52%
[18]
  Activity: Dose-Dependent Effect
[19]
  Activity: 18.13 IU/L
[20]
  Activity: 13.3%
[21]
  Activity: Dose-Dependent Effect
[22]
  Activity: 123.9 mg%
[23]
  Activity: Active
[24]
  Activity: 20.88 mg/g
[25]
  Activity: Active
[26]
  Activity: 7.81
[27]
  Activity: Dose-Dependent Effect
[28]
  Activity: 8.6%
[29]
  Activity: 13.17%
[30]
  Activity: inactive
[31]
  Activity: 1.39 mmol/L
